# Results as given in publication PMC10058827, “A New Way to 2,3,4-Trisubstituted Benzo[h]quinolines: Synthesis, Consecutive Reactions and Cellular Activities” (Molecules, 2023).
# Where two headings read alike, the source gives them in different places.
# Legend:
# Type in all cases: cell-based
# [1] = tested on: human cervical carcinoma cell line KB-3-1; experiment: Antiproliferative WST-1 assay; details: WST-1, 5 days
# Experimental: (§1) In addition to probing effects on bacterial pathogens, the compounds’ ability to interfere with the proliferation and/or viability of four mammalian cell lines was assessed by quantifying their mitochondrial dehydrogenase activity in a colorimetric assay with the tetrazolium dye WST-1. […] The effects of the compounds on cell viability were probed with a WST-1 test using the procedure of Ishiyama et al. as modified by Sasse et al.. […] Briefly, the subconfluent cells were washed with Earle’s Balanced Salt Solution (Gibco) without Ca and Mg ions, trypsinized, and re-suspended in Dulbecco’s modified eagle’s medium that contained 5% fetal bovine serum (FBS; L929, KB-3-1, FS4-LTM) or Roswell Park Memorial Institute medium that contained 5% FBS, 0.5% Minimum Essential Medium Non-Essential Amino Acids, Gibco (MEM NEAA), 0.5% GlutaMAX (Gibco), and insulin at 5 μg/mL (MCF-7). […] The blank and solvent controls were incubated under identical conditions. After an incubation period of 5 days (for L929, KB-3-1, and MCF-7) or 24 h (for FS4-LTM), 3 μL of WST-1 (ready-to-use solution by Roche) was added. The incubation time of the plates at 37 °C varied between the cell lines from 20 min for KB-3-1, 30 min for L929, 1 h for FS4-LTM, to 2 h for MCF-7, before measuring absorbance at 450 nm (reference 600 nm) with an Infinite 200 PRO plate reader (Tecan, Männedorf, Switzerland). As the positive control compounds, Auranofin and Staurosporin were applied. The absorbance of the solvent control was set to 100%. The EC50 values were determined with Sigma Plot.
# [2] = tested on: conditional immortalized human fibroblast cell line FS4-LTM; experiment: Antiproliferative WST-1 assay; details: WST-1, 24 h
# Experimental: as §1
# [3] = tested on: mouse fibroblast cell line L929; experiment: Antiproliferative WST-1 assay; details: WST-1, 5 days
# Experimental: as §1
# [4] = tested on: human breast cancer cell line MCF-7; experiment: Antiproliferative WST-1 assay; details: WST-1, 5 days
# Experimental: (§2) In addition to probing effects on bacterial pathogens, the compounds’ ability to interfere with the proliferation and/or viability of four mammalian cell lines was assessed by quantifying their mitochondrial dehydrogenase activity in a colorimetric assay with the tetrazolium dye WST-1.
# The effects of the compounds on cell viability were probed with a WST-1 test using the procedure of Ishiyama et al. as modified by Sasse et al.. […] Briefly, the subconfluent cells were washed with Earle’s Balanced Salt Solution (Gibco) without Ca and Mg ions, trypsinized, and re-suspended in Dulbecco’s modified eagle’s medium that contained 5% fetal bovine serum (FBS; L929, KB-3-1, FS4-LTM) or Roswell Park Memorial Institute medium that contained 5% FBS, 0.5% Minimum Essential Medium Non-Essential Amino Acids, Gibco (MEM NEAA), 0.5% GlutaMAX (Gibco), and insulin at 5 μg/mL (MCF-7). […] The blank and solvent controls were incubated under identical conditions. After an incubation period of 5 days (for L929, KB-3-1, and MCF-7) or 24 h (for FS4-LTM), 3 μL of WST-1 (ready-to-use solution by Roche) was added. The incubation time of the plates at 37 °C varied between the cell lines from 20 min for KB-3-1, 30 min for L929, 1 h for FS4-LTM, to 2 h for MCF-7, before measuring absorbance at 450 nm (reference 600 nm) with an Infinite 200 PRO plate reader (Tecan, Männedorf, Switzerland). As the positive control compounds, Auranofin and Staurosporin were applied. The absorbance of the solvent control was set to 100%. The EC50 values were determined with Sigma Plot.
# [5] = tested on: Staphylococcus aureus MRSA (DSM 11822); experiment: Antibacterial growth inhibition screen, residual growth in % (OD600); details: for activity at 5 µM: Staphylococcus aureus, strain DSM 11822, compound concentration 5 µM, 18 h at 37 °C; for activity against MRSA (in words): growth inhibition assay
# Experimental: (§3) Overnight cultures of the bacteria were grown aerobically at 37 °C in Müller–Hinton broth with added 1% glucose and a pH of 7.2 for Gram-negative strains, or with a Trypticase soy yeast extract medium (TSY—30 g/L Trypticase soy broth, 3 g/L yeast extract, pH 7.2) for Gram-positive strains. […] A total of 25 μL of test culture was added to 25 μL of a serial dilution of the test compounds in the appropriate medium for the different strains in accordance with standardized procedures in 384-well plates. For screening purposes, the residual absorbance in % was tested at the compound concentrations of 5 and 50 µM. For the selected compounds, the concentration-dependent growth inhibition curves were recorded from the stock solutions in DMSO at the final concentrations of 100, 50, 25, 12.5, 6,25, 3.125, 1.56, 0.78, 0.39, and 0.2 µM. As the positive control compounds, Linezolid (both MRSA strains) Ciprofloxacin (E. faecium, E. coli), and Amikacin (P. aeruginosa) were applied. The highest DMSO concentration in the assay was 1%, which had no apparent effect on the growth of the bacteria. After an incubation time of 18 h at 37 °C under moist conditions, the optical density at 600 nm was measured with a Fusion Universal Microplate Analyzer (Perkin–Elmer, Waltham, MA, USA). […] The following bacterial strains were used: Gram-negative: Escherichia coli (DSM 1116) and Pseudomonas aeruginosa PA7 (DSM 24068), and Gram-positive: Staphylococcus aureus MRSA (clinical isolate, RKI 11-02670) and Staphylococcus aureus MRSA (DSM 11822). The MIC values were determined by curve fitting with Sigma Plot.
# [6] = tested on: four mammalian cell lines (L929, KB-3-1, MCF-7, FS4-LTM); experiment: Antiproliferative WST-1 assay, range over all four cell lines; details: 5 days (L929, KB-3-1, MCF-7) or 24 h (FS4-LTM)
# Experimental: as §2
# The effects of the compounds on cell viability were probed with a WST-1 test using the procedure of Ishiyama et al. as modified by Sasse et al.. […] Briefly, the subconfluent cells were washed with Earle’s Balanced Salt Solution (Gibco) without Ca and Mg ions, trypsinized, and re-suspended in Dulbecco’s modified eagle’s medium that contained 5% fetal bovine serum (FBS; L929, KB-3-1, FS4-LTM) or Roswell Park Memorial Institute medium that contained 5% FBS, 0.5% Minimum Essential Medium Non-Essential Amino Acids, Gibco (MEM NEAA), 0.5% GlutaMAX (Gibco), and insulin at 5 μg/mL (MCF-7). […] After an incubation period of 5 days (for L929, KB-3-1, and MCF-7) or 24 h (for FS4-LTM), 3 μL of WST-1 (ready-to-use solution by Roche) was added. The incubation time of the plates at 37 °C varied between the cell lines from 20 min for KB-3-1, 30 min for L929, 1 h for FS4-LTM, to 2 h for MCF-7, before measuring absorbance at 450 nm (reference 600 nm) with an Infinite 200 PRO plate reader (Tecan, Männedorf, Switzerland). […] The absorbance of the solvent control was set to 100%. The EC50 values were determined with Sigma Plot.
# [7] = tested on: Staphylococcus aureus MRSA (clinical isolate, RKI 11-02670); experiment: Antibacterial MIC determination, concentration-dependent growth inhibition
# Experimental: as §3
# [8] = strain RKI 11-02670, 18 h at 37 °C, read-out: MRSA MIC
# [9] = strain RKI 11-02670, converted from µM, read-out: MRSA MIC (µg/mL values in brackets)
"EC50 ([1]; Homo sapiens, KB 3-1, 120 h)","EC50 ([4]; Homo sapiens, MCF7, 120 h)",SMILES,activity at 5 µM [5],activity against MRSA (in words) [5],"EC50 ([2]; Homo sapiens, FS4-LTM)","EC50 ([3]; Mus musculus, L929, 120 h)",other results
–,–,"CC(=O)OC[C@H]1O[C@@H]([S-])[C@H](OC(C)=O)[C@@H](OC(C)=O)[C@@H]1OC(C)=O.CCP(CC)CC.[Au+] [Auranofin, reference compound]",–,–,–,–,EC50 [1]: 0.6 µM; EC50 [2]: 1.3 µM; EC50 [3]: 0.4 µM; EC50 [4]: 3.5 µM
–,–,"CCOC(=O)CSc1nc2c(ccc3cc4ccccc4cc32)c(C(Cl)Cl)c1[N+](=O)[O-] [Compound 6, Ethyl 2-((4-(dichloromethyl)-3-nitronaphtho[2,3-h]quinolin-2-yl)thio)acetate]",112%,inactive,–,–,–
3.8 µM,3.5 µM,"CCOC(=O)C[S+]([O-])c1nc2c(ccc3ccccc32)c(C(Cl)Cl)c1[N+](=O)[O-] (centres unmarked) [Compound 8, Ethyl 2-((4-(dichloromethyl)-3-nitrobenzo[h]quinolin-2-yl)sulfinyl)acetate]",1%,–,3.4 µM,2.5 µM,"EC50 [6]: 2.5 to 3.8 µM; MIC [7, 8]: 17.5 µM; MIC [7, 9]: 7.7 µg/mL"
< 0.1 µM,> 50 µM,"O=[N+]([O-])c1c(Sc2ccc(F)cc2)nc2c(ccc3ccccc32)c1C(Cl)Cl [Compound 10d, 4-(Dichloromethyl)-2-((4-fluorophenyl)thio)-3-nitrobenzo[h]quinoline]",98.4%,complete loss of activity,> 50 µM,> 50 µM,–
> 50 µM,19 µM,"O=[N+]([O-])c1c(N2CCCCC2)nc2c(ccc3ccccc32)c1C(Cl)Cl [Compound 11a, 4-(Dichloromethyl)-3-nitro-2-(piperidin-1-yl)benzo[h]quinoline]",95.6%,inactive,> 50 µM,> 50 µM,–
10 µM,50 µM,"O=[N+]([O-])c1c(N2CCOCC2)nc2c(ccc3ccccc32)c1C(Cl)Cl [Compound 11b, 4-(4-(Dichloromethyl)-3-nitrobenzo[h]quinolin-2-yl)morpholine]",123%,inactive,> 50 µM,27 µM,–
3.1 µM,> 50 µM,"O=[N+]([O-])c1c([S+]([O-])c2ccc(F)cc2)nc2c(ccc3ccccc32)c1C(Cl)Cl (centres unmarked) [Compound 12, 4-(Dichloromethyl)-2-((4-fluorophenyl)sulfinyl)-3-nitrobenzo[h]quinoline]",2%,–,4.4 µM,3.3 µM,"MIC [7, 8]: 1.2 µM; MIC [7, 9]: 0.5 µg/mL"
6.9 µM,17 µM,"O=C(O)CSc1nc2c(ccc3ccccc32)c(C(Cl)Cl)c1[N+](=O)[O-] [Compound 13, 2-((4-(Dichloromethyl)-3-nitrobenzo[h]quinolin-2-yl)thio)acetic acid]",1%,high activity,15.7 µM,45 µM,"EC50 [6]: 6.9 to 45 µM; MIC [7, 8]: 8.4 µM; MIC [7, 9]: 3.3 µg/mL"
–,–,"O=[N+]([O-])C(C(Cl)=C(Cl)Cl)=C(n1cccn1)n1cccn1 [Compound 16c, 1,1’-(3,4,4-Trichloro-2-nitrobuta-1,3-diene-1,1-diyl)bis(1H-pyrazole)]",126%,no activity,–,–,–
–,–,"O=[N+]([O-])/C(C(Cl)=C(Cl)Cl)=C(\Nc1cccc2ccccc12)n1nnc2ccccc21 [Compound 17a, (E)-N-(1-(1H-Benzo[d][1,2,3]triazol-1-yl)-3,4,4-trichloro-2-nitrobuta-1,3-dien-1-yl)naphthalen-1-amine]",120%,–,–,–,–
–,–,"O=[N+]([O-])/C(C(Cl)=C(Cl)Cl)=C(\Nc1cccc2ccccc12)n1cncn1 [Compound 17b, (E)-N-(3,4,4-Trichloro-2-nitro-1-(1H-1,2,4-triazol-1-yl)buta-1,3-dien-1-yl)naphthalen-1-amine]",112%,–,–,–,–
–,–,"O=[N+]([O-])/C(C(Cl)=C(Cl)Cl)=C(\Nc1cccc2ccccc12)n1cccn1 [Compound 17c, (E)-N-(3,4,4-Trichloro-2-nitro-1-(1H-pyrazol-1-yl)buta-1,3-dien-1-yl)naphthalen-1-amine]",101%,–,–,–,–
–,–,"O=[N+]([O-])c1c(-n2nnc3ccccc32)nc2c(ccc3ccccc32)c1C(Cl)Cl [Compound 18a, 2-(1H-Benzo[d][1,2,3]triazol-1-yl)-4-(dichloromethyl)-3-nitrobenzo[h]quinoline]",95.1%,–,–,–,–
–,–,"O=[N+]([O-])c1c(-n2cncn2)nc2c(ccc3ccccc32)c1C(Cl)Cl [Compound 18b, 4-(Dichloromethyl)-3-nitro-2-(1H-1,2,4-triazol-1-yl)benzo[h]quinoline]",107%,–,–,–,–
–,–,"O=[N+]([O-])c1c(-n2cccn2)nc2c(ccc3ccccc32)c1C(Cl)Cl [Compound 18c, 4-(Dichloromethyl)-3-nitro-2-(1H-pyrazol-1-yl)benzo[h]quinoline]",110%,–,–,–,–
–,–,"CC(=O)NC[C@H]1CN(c2ccc(N3CCOCC3)c(F)c2)C(=O)O1 [Linezolid, reference compound]",1%,–,–,–,"MIC [7, 8]: 0.4 µM"

SMILES,"EC50 ([1]; Homo sapiens, KB 3-1, 120 h)","EC50 ([4]; Homo sapiens, MCF7, 120 h)",activity at 5 µM [5],activity against MRSA (in words) [5],"EC50 ([2]; Homo sapiens, FS4-LTM)","EC50 ([3]; Mus musculus, L929, 120 h)",other results
"CN[C@@H]1C[C@H]2O[C@@](C)([C@@H]1OC)n1c3ccccc3c3c4c(c5c6ccccc6n2c5c31)C(=O)NC4 [Staurosporine, reference compound]",–,< 0.14 µM,–,–,–,–,–
